# Laboratory results published in PMC5391474, “Investigation of the Role of Protein Kinase D in Human Rhinovirus Replication” (Journal of Virology, 2017).
# What was measured:
# Experiment in all cases: biochemical
# Set-up in all cases: in vitro kinase selectivity panel, protein and lipid kinases, single concentration, ATP at Km
# Conditions in all cases: ATP at Km
# ALK(h) = ALK(h) (Homo sapiens, UniProt Q9UM73)
# In short: (§1)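 Single-point screen against a protein and lipid kinase panel: inhibitor at 1 μM. ATP concentration for every kinase equivalent to its Km.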
# CaMKIV(h) = molecular target: T1, CaMKIV(h) (Homo sapiens, UniProt Q16566)
# T1 construct: gene CAMK4
# In short: as §1
# EGFR(T790M,L858R)(h) = EGFR(T790M,L858R)(h) (Homo sapiens, UniProt P00533, L858R/T790M)
# In short: as §1
# Flt1(h) = Flt1(h) (Homo sapiens, UniProt P17948)
# In short: as §1
# Flt3(D835Y)(h) = Flt3(D835Y)(h) (Homo sapiens, UniProt P36888, D835Y)
# In short: as §1
# GSK3β(h) = molecular target: T2, GSK3β(h) (Homo sapiens, UniProt P49841)
# T2 construct: gene GSK3B
# In short: as §1
# MAPKAP-K2(h) = molecular target: T3, MAPKAP-K2(h) (Homo sapiens, UniProt P49137)
# T3 construct: gene MAPKAPK2
# T3 sequence (P49137 whole entry): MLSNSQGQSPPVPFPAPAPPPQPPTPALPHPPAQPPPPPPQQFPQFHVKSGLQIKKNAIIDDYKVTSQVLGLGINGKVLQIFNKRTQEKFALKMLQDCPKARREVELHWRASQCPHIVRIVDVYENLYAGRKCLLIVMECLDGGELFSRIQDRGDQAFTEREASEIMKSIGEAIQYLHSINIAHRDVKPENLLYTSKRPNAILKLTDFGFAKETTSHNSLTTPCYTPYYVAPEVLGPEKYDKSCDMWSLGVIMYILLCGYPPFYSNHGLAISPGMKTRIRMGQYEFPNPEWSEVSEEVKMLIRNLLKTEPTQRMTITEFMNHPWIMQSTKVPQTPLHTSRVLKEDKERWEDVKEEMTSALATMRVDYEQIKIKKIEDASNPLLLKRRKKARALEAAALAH
# In short: as §1
# Met(h) = Met(h) (Homo sapiens, UniProt P08581)
# Chain of Met(h) (P08581 whole entry): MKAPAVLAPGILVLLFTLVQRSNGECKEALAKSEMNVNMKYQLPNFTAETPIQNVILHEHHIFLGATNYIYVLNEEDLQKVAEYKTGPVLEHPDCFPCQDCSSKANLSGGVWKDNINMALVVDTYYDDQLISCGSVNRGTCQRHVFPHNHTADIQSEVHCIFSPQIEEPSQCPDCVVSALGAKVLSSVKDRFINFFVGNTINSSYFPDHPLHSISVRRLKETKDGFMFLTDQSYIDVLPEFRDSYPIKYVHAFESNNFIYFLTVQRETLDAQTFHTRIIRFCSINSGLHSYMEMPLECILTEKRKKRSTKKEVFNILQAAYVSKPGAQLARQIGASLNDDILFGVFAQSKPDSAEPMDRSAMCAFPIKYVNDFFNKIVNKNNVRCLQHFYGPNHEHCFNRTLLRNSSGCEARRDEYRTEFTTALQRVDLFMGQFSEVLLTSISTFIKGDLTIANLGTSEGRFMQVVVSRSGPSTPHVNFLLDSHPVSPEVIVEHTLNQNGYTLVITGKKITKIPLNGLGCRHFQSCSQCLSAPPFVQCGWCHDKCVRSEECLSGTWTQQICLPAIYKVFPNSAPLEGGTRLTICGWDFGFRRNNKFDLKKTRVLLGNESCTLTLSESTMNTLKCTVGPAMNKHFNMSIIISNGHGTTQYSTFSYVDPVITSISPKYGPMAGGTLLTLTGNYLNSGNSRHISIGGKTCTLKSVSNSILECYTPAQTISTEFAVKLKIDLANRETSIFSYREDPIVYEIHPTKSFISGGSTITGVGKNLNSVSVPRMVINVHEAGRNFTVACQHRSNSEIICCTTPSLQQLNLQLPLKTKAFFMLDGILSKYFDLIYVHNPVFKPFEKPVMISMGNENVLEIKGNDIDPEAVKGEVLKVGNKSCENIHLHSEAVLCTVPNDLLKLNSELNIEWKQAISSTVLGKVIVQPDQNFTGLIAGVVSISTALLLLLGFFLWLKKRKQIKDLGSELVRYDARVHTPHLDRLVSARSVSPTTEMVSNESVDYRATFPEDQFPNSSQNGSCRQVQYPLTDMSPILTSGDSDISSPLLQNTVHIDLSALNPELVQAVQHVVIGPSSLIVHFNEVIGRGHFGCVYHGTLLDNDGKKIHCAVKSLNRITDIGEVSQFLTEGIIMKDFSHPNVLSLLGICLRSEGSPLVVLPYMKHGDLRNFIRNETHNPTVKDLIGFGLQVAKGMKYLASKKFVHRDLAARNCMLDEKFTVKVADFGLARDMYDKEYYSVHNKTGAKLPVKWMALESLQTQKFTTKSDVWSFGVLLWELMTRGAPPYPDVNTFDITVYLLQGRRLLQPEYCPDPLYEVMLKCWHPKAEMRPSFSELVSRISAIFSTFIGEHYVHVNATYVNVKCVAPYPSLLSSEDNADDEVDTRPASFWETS
# In short: as §1
# PIK3CG / p85 (h) = molecular target: T4, PIK3CG / p85 (h) (Homo sapiens, UniProt P48736)
# T4 construct: p110gamma/p85 as printed
# In short: as §1
# PKCα(h) = molecular target: T5, PKCα(h) (Homo sapiens, UniProt P17252)
# T5 construct: gene PRKCA
# In short: as §1
# PKD (PKD1) = molecular target: T6, PKD (PKD1) (Homo sapiens, UniProt Q15139)
# T6 construct: gene PRKD1
# In short: as §1
# Pim-1(h) = molecular target: T7, Pim-1(h) (Homo sapiens, UniProt P11309)
# T7 construct: gene PIM1
# In short: as §1
# Ron(h) = molecular target: T8, Ron(h) (Homo sapiens, UniProt Q04912)
# T8 construct: gene MST1R
# In short: as §1
# SPHK1 = SPHK1 (Homo sapiens, UniProt Q9NYA1)
# Chain of SPHK1 (Q9NYA1 whole entry): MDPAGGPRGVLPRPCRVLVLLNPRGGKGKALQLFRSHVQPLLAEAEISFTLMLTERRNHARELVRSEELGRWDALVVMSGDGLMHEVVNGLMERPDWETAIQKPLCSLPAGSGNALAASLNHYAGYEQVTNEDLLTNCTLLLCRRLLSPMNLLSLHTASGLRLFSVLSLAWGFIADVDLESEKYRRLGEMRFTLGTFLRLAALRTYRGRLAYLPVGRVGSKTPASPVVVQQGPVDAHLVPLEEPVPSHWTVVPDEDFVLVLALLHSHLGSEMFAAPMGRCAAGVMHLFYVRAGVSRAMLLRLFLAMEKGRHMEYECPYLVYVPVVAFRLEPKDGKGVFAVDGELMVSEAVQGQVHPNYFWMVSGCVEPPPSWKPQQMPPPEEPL
# In short: as §1
# Snk(h) = molecular target: T9, Snk(h) (Homo sapiens, UniProt Q9NYY3)
# T9 construct: gene PLK2
# In short: as §1
# ZAP-70(h) = molecular target: T10, ZAP-70(h) (Homo sapiens, UniProt P43403)
# T10 construct: gene ZAP70
# T10 sequence (P43403 whole entry): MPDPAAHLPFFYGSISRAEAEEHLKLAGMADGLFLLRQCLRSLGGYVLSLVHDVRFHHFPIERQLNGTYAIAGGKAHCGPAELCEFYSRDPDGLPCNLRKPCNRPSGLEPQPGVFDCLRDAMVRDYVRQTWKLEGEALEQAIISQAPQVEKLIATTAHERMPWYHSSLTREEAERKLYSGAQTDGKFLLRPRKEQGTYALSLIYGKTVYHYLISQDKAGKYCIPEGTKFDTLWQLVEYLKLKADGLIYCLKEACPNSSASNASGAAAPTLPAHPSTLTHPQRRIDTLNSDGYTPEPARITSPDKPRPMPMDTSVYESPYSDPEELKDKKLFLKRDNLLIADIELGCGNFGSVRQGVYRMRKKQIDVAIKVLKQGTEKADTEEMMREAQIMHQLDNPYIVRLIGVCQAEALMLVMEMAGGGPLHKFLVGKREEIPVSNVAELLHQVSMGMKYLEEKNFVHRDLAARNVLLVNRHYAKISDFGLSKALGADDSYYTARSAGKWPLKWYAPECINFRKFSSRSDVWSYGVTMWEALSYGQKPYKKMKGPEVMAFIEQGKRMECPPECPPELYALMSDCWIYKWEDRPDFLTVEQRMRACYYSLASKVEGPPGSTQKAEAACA
# In short: as §1
# cSRC(h) = molecular target: T11, cSRC(h) (Homo sapiens, UniProt P12931)
# T11 construct: gene SRC
# T11 sequence (P12931 whole entry): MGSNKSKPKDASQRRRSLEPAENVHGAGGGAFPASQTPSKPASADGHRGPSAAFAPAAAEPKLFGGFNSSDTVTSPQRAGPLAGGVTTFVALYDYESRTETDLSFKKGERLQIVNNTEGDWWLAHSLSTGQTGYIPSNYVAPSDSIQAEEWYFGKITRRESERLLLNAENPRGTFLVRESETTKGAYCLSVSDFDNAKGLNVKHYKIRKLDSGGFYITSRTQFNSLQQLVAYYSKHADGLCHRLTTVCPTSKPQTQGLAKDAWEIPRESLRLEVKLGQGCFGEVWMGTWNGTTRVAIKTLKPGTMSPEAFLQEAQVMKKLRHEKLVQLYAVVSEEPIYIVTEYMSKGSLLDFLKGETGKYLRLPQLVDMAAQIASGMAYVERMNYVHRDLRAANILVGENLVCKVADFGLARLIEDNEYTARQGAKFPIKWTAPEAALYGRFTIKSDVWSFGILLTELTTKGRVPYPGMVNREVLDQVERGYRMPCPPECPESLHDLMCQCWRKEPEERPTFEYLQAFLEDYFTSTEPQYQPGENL
# In short: as §1
# Chain of ALK(h) (Q9UM73 whole entry): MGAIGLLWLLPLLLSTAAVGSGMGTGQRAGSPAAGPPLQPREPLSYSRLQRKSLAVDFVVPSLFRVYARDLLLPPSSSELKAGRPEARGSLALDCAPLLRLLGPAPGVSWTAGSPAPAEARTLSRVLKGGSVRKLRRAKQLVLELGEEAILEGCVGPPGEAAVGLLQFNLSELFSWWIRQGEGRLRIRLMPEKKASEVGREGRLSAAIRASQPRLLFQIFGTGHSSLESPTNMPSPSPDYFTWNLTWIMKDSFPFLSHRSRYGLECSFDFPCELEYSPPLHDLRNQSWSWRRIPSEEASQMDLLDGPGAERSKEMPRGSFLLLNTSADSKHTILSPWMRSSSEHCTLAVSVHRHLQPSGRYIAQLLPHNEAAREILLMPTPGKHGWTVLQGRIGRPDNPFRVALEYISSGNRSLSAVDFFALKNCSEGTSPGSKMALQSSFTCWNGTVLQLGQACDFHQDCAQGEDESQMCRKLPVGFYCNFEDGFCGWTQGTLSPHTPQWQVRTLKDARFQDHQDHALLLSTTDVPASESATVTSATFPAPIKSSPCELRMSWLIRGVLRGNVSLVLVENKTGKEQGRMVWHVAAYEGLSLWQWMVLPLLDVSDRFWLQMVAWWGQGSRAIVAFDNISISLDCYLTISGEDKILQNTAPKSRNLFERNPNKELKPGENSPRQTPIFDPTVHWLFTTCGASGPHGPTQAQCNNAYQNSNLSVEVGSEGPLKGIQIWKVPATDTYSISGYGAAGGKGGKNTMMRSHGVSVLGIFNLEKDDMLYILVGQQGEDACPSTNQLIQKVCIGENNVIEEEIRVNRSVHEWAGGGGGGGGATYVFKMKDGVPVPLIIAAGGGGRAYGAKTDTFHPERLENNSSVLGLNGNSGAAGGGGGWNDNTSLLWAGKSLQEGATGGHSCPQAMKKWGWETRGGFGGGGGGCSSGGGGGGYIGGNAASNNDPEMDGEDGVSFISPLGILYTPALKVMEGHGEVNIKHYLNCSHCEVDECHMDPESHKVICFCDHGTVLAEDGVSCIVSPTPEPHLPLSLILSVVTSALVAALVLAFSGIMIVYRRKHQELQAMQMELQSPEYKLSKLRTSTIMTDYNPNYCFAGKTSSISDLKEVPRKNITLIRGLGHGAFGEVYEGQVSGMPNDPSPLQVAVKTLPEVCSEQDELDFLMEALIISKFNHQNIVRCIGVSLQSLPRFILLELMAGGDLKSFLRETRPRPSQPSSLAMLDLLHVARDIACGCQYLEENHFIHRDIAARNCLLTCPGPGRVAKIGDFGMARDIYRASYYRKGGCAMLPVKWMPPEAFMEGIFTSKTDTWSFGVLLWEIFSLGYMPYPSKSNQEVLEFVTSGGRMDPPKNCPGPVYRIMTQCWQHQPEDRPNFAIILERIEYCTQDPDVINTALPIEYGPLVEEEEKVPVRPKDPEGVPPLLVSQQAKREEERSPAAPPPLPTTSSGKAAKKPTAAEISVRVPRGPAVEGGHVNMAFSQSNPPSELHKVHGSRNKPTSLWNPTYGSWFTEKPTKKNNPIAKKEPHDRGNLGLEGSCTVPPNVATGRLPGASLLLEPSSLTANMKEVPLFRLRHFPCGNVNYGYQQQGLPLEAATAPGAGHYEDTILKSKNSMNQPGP
smiles,measurement,setting,value
CC[C@@H](N)CNc1ccnc(-c2cc(-c3cnn(C)c3)ccc2O)n1 [CRT0066101],inhibition at 1 µM,ALK(h),3%
same,inhibition at 1 µM,CaMKIV(h),26%
same,inhibition at 1 µM,"EGFR(T790M,L858R)(h)",-3%
same,inhibition at 1 µM,Flt1(h),-6%
same,inhibition at 1 µM,Flt3(D835Y)(h),80%
same,inhibition at 1 µM,GSK3β(h),18%
same,inhibition at 1 µM,MAPKAP-K2(h),-9%
same,inhibition at 1 µM,Met(h),12%
same,inhibition at 1 µM,PIK3CG / p85 (h),-1%
same,inhibition at 1 µM,PKCα(h),4%
same,inhibition at 1 µM,PKD (PKD1),98%
same,inhibition at 1 µM,Pim-1(h),98%
same,inhibition at 1 µM,Ron(h),-8%
same,inhibition at 1 µM,SPHK1,19%
same,inhibition at 1 µM,Snk(h),-1%
same,inhibition at 1 µM,ZAP-70(h),-19%
same,inhibition at 1 µM,cSRC(h),3%
